Experimental data taken from ChEMBL document CHEMBL3808392, “Design, synthesis and biological evaluation of 5-fluorouracil-derived benzimidazoles as novel type of potential antimicrobial agents” (2016).
≈ marks a conversion by molar mass, not a printed value.

Assays:
[1] = system: Saccharomyces cerevisiae; test: Antimicrobial activity against Saccharomyces cerevisiae after 24 hrs by microbroth dilution method; assay type: functional
[2] = Antimicrobial activity against Bacillus proteus ATCC 13315 after 24 hrs by microbroth dilution method; assay type: functional; conditions: ATCC 13315, 24 h
[3] = system: Escherichia coli; test: Antimicrobial activity against Escherichia coli DH52 after 24 hrs by microbroth dilution method; assay type: functional; conditions: DH52, 24 h
[4] = system: Micrococcus luteus; test: Antimicrobial activity against Micrococcus luteus ATCC 4698 after 24 hrs by microbroth dilution method; assay type: functional; conditions: ATCC 4698, 24 h
[5] = system: Salmonella typhi; test: Antimicrobial activity against Bacillus typhi after 24 hrs by microbroth dilution method; assay type: functional, Salmonella enterica subsp. enterica serovar Typhi; conditions: Salmonella enterica
[6] = system: Escherichia coli; test: Antimicrobial activity against Escherichia coli JM109 after 24 hrs by microbroth dilution method; assay type: functional; conditions: JM109, 24 h
[7] = system: Staphylococcus aureus; test: Antimicrobial activity against methicillin-resistant Staphylococcus aureus N315 after 24 hrs by microbroth dilution method; assay type: functional; conditions: N315, 24 h
[8] = system: Candida; test: Antimicrobial activity against Candida mycoderma ATCC 9888 after 24 hrs by microbroth dilution method; assay type: functional; conditions: ATCC 9888, 24 h
[9] = system: Aspergillus flavus; test: Antimicrobial activity against Aspergillus flavus ATCC 204304 after 24 hrs by microbroth dilution method; assay type: functional; conditions: ATCC 204304, 24 h
[10] = system: Bacillus spizizenii; test: Antimicrobial activity against Bacillus subtilis ATCC 6633 after 24 hrs by microbroth dilution method; assay type: functional; conditions: ATCC 6633, 24 h
[11] = system: Candida albicans; test: Antimicrobial activity against Candida albicans ATCC 10231 after 24 hrs by microbroth dilution method; assay type: functional; conditions: ATCC 10231, 24 h
[12] = system: Staphylococcus aureus; test: Antimicrobial activity against Staphylococcus aureus ATCC 25923 after 24 hrs by microbroth dilution method; assay type: functional; conditions: ATCC 25923, 24 h

| SMILES | MIC [1] | MIC [2] | MIC [3] | MIC [4] | MIC [5] | MIC [6] | MIC [7] | MIC [8] | MIC [9] | MIC [10] | MIC [11] | MIC [12] |
| --- | --- | --- | --- | --- | --- | --- | --- | --- | --- | --- | --- | --- |
| O=c1c(F)cn(Cc2nc3ccccc3n2Cc2ccccc2)c(=O)n1Cc1ccccc1 | > 512 µg/mL | > 512 µg/mL | > 512 µg/mL | 128 µg/mL (≈ 291 µM) | 128 µg/mL (≈ 291 µM) | > 512 µg/mL | > 512 µg/mL | 128 µg/mL (≈ 291 µM) | 64 µg/mL (≈ 145 µM) | 64 µg/mL (≈ 145 µM) | 128 µg/mL (≈ 291 µM) | > 512 µg/mL |
| Cc1ccc(Cn2c(=O)c(F)cn(Cc3nc4ccccc4n3Cc3ccc(C)cc3)c2=O)cc1 | > 512 µg/mL | > 512 µg/mL | 128 µg/mL (≈ 273 µM) | > 512 µg/mL | 512 µg/mL (≈ 1090 µM) | > 512 µg/mL | > 512 µg/mL | > 512 µg/mL | > 512 µg/mL | > 512 µg/mL | > 512 µg/mL | > 512 µg/mL |
| CCn1cc(C(=O)O)c(=O)c2cc(F)c(N3CCNCC3)cc21 [NORFLOXACIN] |  | 8 µg/mL (≈ 25.1 µM) | 1 µg/mL (≈ 3.13 µM) | 2 µg/mL (≈ 6.26 µM) | 4 µg/mL (≈ 12.5 µM) | 1 µg/mL (≈ 3.13 µM) | 8 µg/mL (≈ 25.1 µM) |  |  | 4 µg/mL (≈ 12.5 µM) |  | 2 µg/mL (≈ 6.26 µM) |
| CCCn1c(=O)c(F)cn(Cc2nc3ccccc3n2CCC)c1=O | 128 µg/mL (≈ 372 µM) | 128 µg/mL (≈ 372 µM) | 32 µg/mL (≈ 92.9 µM) | 32 µg/mL (≈ 92.9 µM) | 64 µg/mL (≈ 186 µM) | 16 µg/mL (≈ 46.5 µM) | 64 µg/mL (≈ 186 µM) | 32 µg/mL (≈ 92.9 µM) | 64 µg/mL (≈ 186 µM) | 64 µg/mL (≈ 186 µM) | 64 µg/mL (≈ 186 µM) | 32 µg/mL (≈ 92.9 µM) |
| CCCCCn1c(=O)c(F)cn(Cc2nc3ccccc3n2CCCCC)c1=O | 8 µg/mL (≈ 20 µM) | 8 µg/mL (≈ 20 µM) | 512 µg/mL (≈ 1280 µM) | 32 µg/mL (≈ 79.9 µM) | 512 µg/mL (≈ 1280 µM) | 16 µg/mL (≈ 40 µM) | 16 µg/mL (≈ 40 µM) | 8 µg/mL (≈ 20 µM) | > 512 µg/mL | 512 µg/mL (≈ 1280 µM) | > 512 µg/mL | 16 µg/mL (≈ 40 µM) |
| COc1ccc(Cn2c(=O)c(F)cn(Cc3nc4ccccc4n3Cc3ccc(OC)cc3)c2=O)cc1 | 64 µg/mL (≈ 128 µM) | 32 µg/mL (≈ 63.9 µM) | 128 µg/mL (≈ 256 µM) | 64 µg/mL (≈ 128 µM) | 64 µg/mL (≈ 128 µM) | 16 µg/mL (≈ 32 µM) | 32 µg/mL (≈ 63.9 µM) | 512 µg/mL (≈ 1020 µM) | 32 µg/mL (≈ 63.9 µM) | 64 µg/mL (≈ 128 µM) | 64 µg/mL (≈ 128 µM) | 128 µg/mL (≈ 256 µM) |
